Assay results as given in patent US20230073755A1, “USE OF IGF1 IN COMBINATION WITH IGFEC24 IN PREPARATION OF MEDICINE FOR PROMOTING TISSUE REPAIR AND REGENERATION” (Chongqing University, priority 2020, published 2023).

Experiments:
skeletal muscle cells = experiment: Skeletal muscle cell proliferation effect (Edu / Desmin immunofluorescence of gastrocnemius muscle), SD rats; type: in vivo; settings: gastrocnemius muscle sections, FIG. 8
Method: In certain embodiments, adult female SD rats were divided into five groups: PBS group, IGF1 group, IGF1Ec group, IGF1-24 group, and IGF1+IGF1Ec24 peptide group, with three rats in each group. The rats in each group were distinguished by ear clipping for subsequent protein injection according to the different body weights of the rats.
The rats in each group were injected with PBS, IGF1, IGF1Ec24 peptide, IGF1Ec and IGF1-24 for 7 consecutive days. Recombinant protein IGF1-24 was injected at 100 μg/kg, and the injection of the remaining proteins in each group was converted according to the molar amount of IGF1-24 injection as follows: 90 μg/kg for IGF1, 8.9 μg/kg for IGF1Ec24 peptide, 104 μg/kg for IGF1Ec.
After seven days of protein injection, the intraperitoneal injection of Edu solution at a concentration of 2.5 mg/kg was performed for seven days, so that the final total dose of each rat reached 50 mg/kg. […]

sciatic nerve = experiment: Sciatic nerve injury repair in rat sciatic nerve injury (clamp) model; type: in vivo, SD rats
Text: The 8-week-old female SD rats were randomly divided into sham-operated and operated groups, with 3 rats in each group. SD rats were anesthetized by intraperitoneal injection of 10% chloral hydrate, and after successful anesthesia, the rats were fixed, and their right hind limbs were exposed by shaving with a shaver, and disinfected twice with 75% alcohol. A 3-4 cm incision was made with a scalpel at the posterior lateral femur of the right hind limb to expose the biceps femoris muscle, and the muscle was bluntly separated with surgical scissors to expose the thick sciatic nerve. The sciatic nerve was clamped vertically with a microhemostatic forceps, buckled to the third buckle, maintained for 10 s, repeated 3 times at 5 s/interval, resulting in an injury area approximately 2 mm wide, and the sciatic nerve was put back in place and sutured layer by layer. Penicillin (40,000 units/100g) was injected intraperitoneally for three consecutive days to prevent wound infection. […]
A dark box runway of 70 cm in length, 10 cm in width and 10 cm in height was made. […] The footprint length (PL), toe width (TS) and middle toe width (IT) were then measured and brought into the Bain formula for calculation.Bain formula: SFI=109.5 (ETS−NTS)/NTS−38.3 (EPL−NPL)/NPL+13.3(EIT−NIT)/NIT−8.8. […]

IGF1-24: 97 amino acids: amino-terminal 70 identical to IGF1, carboxyl-terminal 24 identical to IGFEc24 peptide, joined by three Gly linkers (SEQ ID NO: 4)
number of Edu-positive skeletal muscle cells per square millimeter (skeletal muscle cells): 28 per square millimeter | expression of GAP-43 in the sciatic nerve (immunofluorescence) (sciatic nerve; after 14 days of IGF1-24 100 μg/kg intraperitoneally, significantly different from control and Injury groups, FIG. 15): remained at a high level | sciatic nerve index (SFI) (sciatic nerve; treated group after IGF1-24 treatment, footprint analysis, Bain formula, FIG. 17): close to that of the uninjured group
